Assay results: patent publication US11021628B2, “Coating composition containing methyl cellulose, method for producing the same, and solid preparation” (Shin-Etsu Chemical Co., Ltd., priority 2016, dated 2021)

Assay: Dissolution Test, Paddle method, Japanese Pharmacopoeia Sixteenth Edition
Assay type: physicochemical
Details: acetaminophen, water, paddle 100 rpm
Description: The coated granules was subjected to the dissolution test in accordance with Dissolution Test, Paddle method in the Japanese Pharmacopoeia Sixteenth Edition at a paddle rotation rate of 100 rpm with water as the test liquid, and the drug concentration was quantitatively determined at a measurement wavelength of 244 nm by using an ultraviolet spectrophotometer (UV-1700, manufactured by Shimadzu Corporation).
As Reference Example 1, the dissolution rates of an acetaminophen powder after 1 minute and 10 minutes are also shown in Table 3.

Compound: CC(=O)Nc1ccc(O)cc1 [Ref. Ex. 1, acetaminophen]
- dissolution ratio after 1 minute (1 minute): 48.0%
- dissolution ratio after 10 minutes (10 minutes): 99.6%
